From the NIST ThermoML archive (doi:10.1016/j.jct.2014.09.011)
± gives the expanded uncertainty stated by the source.

Assay: mn = molality of the nth substance listed, in mol/kg
Details: 101.3 kPa, Liquid; for speed of sound: Frequency=2 MHz, Linear variable-path acoustic interferometer; for mass density: Pycnometric method

O=C(O)[C@]1(O)C[C@@H](O)[C@@H](O)[C@H](O)C1 + O
Details	mass density [kg/m3]	speed of sound [m/s]
278.15 K, m1 = 0.01	1000.73 ± 0.36	1427.1 ± 2.6
278.15 K, m1 = 0.0198	1001.5 ± 0.36	1428.1 ± 2.6
278.15 K, m1 = 0.0299	1002.27 ± 0.36	1429.2 ± 2.6
278.15 K, m1 = 0.0374	1002.84 ± 0.36	1429.9 ± 2.6
278.15 K, m1 = 0.0405	1003.09 ± 0.36	1430.2 ± 2.6
278.15 K, m1 = 0.0441	1003.35 ± 0.36	1430.6 ± 2.6
278.15 K, m1 = 0.0492	1003.74 ± 0.36	1431 ± 2.6
278.15 K, m1 = 0.0601	1004.55 ± 0.36	1432.1 ± 2.6
278.15 K, m1 = 0.0634	1004.82 ± 0.36	1432.4 ± 2.6
278.15 K, m1 = 0.072	1005.45 ± 0.36	1433.3 ± 2.6
278.15 K, m1 = 0.0815	1006.18 ± 0.36	1434.3 ± 2.6
278.15 K, m1 = 0.0892	1006.75 ± 0.36	1435 ± 2.6
278.15 K, m1 = 0.1001	1007.56 ± 0.36	1436.1 ± 2.6
288.15 K, m1 = 0.0096	999.82 ± 0.33	1466.7 ± 2.5
288.15 K, m1 = 0.0238	1000.89 ± 0.33	1467.9 ± 2.5
288.15 K, m1 = 0.0297	1001.32 ± 0.33	1468.4 ± 2.5
288.15 K, m1 = 0.0362	1001.8 ± 0.33	1468.9 ± 2.5
288.15 K, m1 = 0.0403	1002.1 ± 0.33	1469.3 ± 2.5
288.15 K, m1 = 0.0447	1002.43 ± 0.33	1469.6 ± 2.5
288.15 K, m1 = 0.0489	1002.74 ± 0.33	1470 ± 2.5
288.15 K, m1 = 0.0542	1003.11 ± 0.33	1470.4 ± 2.5
288.15 K, m1 = 0.061	1003.63 ± 0.33	1471 ± 2.5
288.15 K, m1 = 0.0683	1004.16 ± 0.33	1471.6 ± 2.5
288.15 K, m1 = 0.0795	1004.98 ± 0.33	1472.5 ± 2.5
288.15 K, m1 = 0.0869	1005.52 ± 0.33	1473.1 ± 2.5
288.15 K, m1 = 0.0992	1006.4 ± 0.33	1474.2 ± 2.5
298.15 K, m1 = 0.0096	997.74 ± 0.33	1497.4 ± 2.5
298.15 K, m1 = 0.0199	998.49 ± 0.33	1498.3 ± 2.5
298.15 K, m1 = 0.0254	998.89 ± 0.33	1498.7 ± 2.5
298.15 K, m1 = 0.0304	999.25 ± 0.33	1499.1 ± 2.5
298.15 K, m1 = 0.0385	999.83 ± 0.33	1499.7 ± 2.5
298.15 K, m1 = 0.0415	1000.05 ± 0.33	1500 ± 2.5
298.15 K, m1 = 0.0493	1000.6 ± 0.33	1500.6 ± 2.5
298.15 K, m1 = 0.0542	1000.95 ± 0.33	1501 ± 2.5
298.15 K, m1 = 0.061	1001.46 ± 0.33	1501.5 ± 2.5
298.15 K, m1 = 0.0716	1002.18 ± 0.33	1502.4 ± 2.5
298.15 K, m1 = 0.0786	1002.68 ± 0.33	1502.9 ± 2.5
298.15 K, m1 = 0.0869	1003.27 ± 0.33	1503.6 ± 2.5
298.15 K, m1 = 0.1007	1004.22 ± 0.33	1504.7 ± 2.5

Cl.N=C(N)N [guanidine hydrochloride] + O
Details	mass density [kg/m3]	speed of sound [m/s]
278.15 K, m1 = 0.0101	1000.29 ± 0.35	1427 ± 2.6
278.15 K, m1 = 0.0162	1000.5 ± 0.36	1427.5 ± 2.6
278.15 K, m1 = 0.0196	1000.61 ± 0.36	1427.8 ± 2.6
278.15 K, m1 = 0.0227	1000.7 ± 0.36	1428 ± 2.6
278.15 K, m1 = 0.0291	1000.91 ± 0.36	1428.5 ± 2.6
278.15 K, m1 = 0.039	1001.25 ± 0.36	1429.3 ± 2.6
278.15 K, m1 = 0.0501	1001.58 ± 0.36	1430.3 ± 2.6
278.15 K, m1 = 0.0586	1001.85 ± 0.36	1431 ± 2.6
278.15 K, m1 = 0.0619	1001.96 ± 0.36	1431.2 ± 2.6
278.15 K, m1 = 0.0685	1002.17 ± 0.36	1431.8 ± 2.6
278.15 K, m1 = 0.0807	1002.54 ± 0.36	1432.8 ± 2.6
278.15 K, m1 = 0.0882	1002.78 ± 0.36	1433.4 ± 2.6
278.15 K, m1 = 0.0981	1003.08 ± 0.36	1434.2 ± 2.6
288.15 K, m1 = 0.0102	999.41 ± 0.32	1466.6 ± 2.5
288.15 K, m1 = 0.0201	999.7 ± 0.32	1467.3 ± 2.5
288.15 K, m1 = 0.0267	999.9 ± 0.32	1467.8 ± 2.5
288.15 K, m1 = 0.0297	999.98 ± 0.33	1468 ± 2.5
288.15 K, m1 = 0.0387	1000.25 ± 0.33	1468.6 ± 2.5
288.15 K, m1 = 0.0437	1000.41 ± 0.33	1469 ± 2.5
288.15 K, m1 = 0.0502	1000.59 ± 0.33	1469.4 ± 2.5
288.15 K, m1 = 0.0598	1000.86 ± 0.33	1470.1 ± 2.5
288.15 K, m1 = 0.0634	1000.97 ± 0.33	1470.4 ± 2.5
288.15 K, m1 = 0.0697	1001.15 ± 0.33	1470.8 ± 2.5
288.15 K, m1 = 0.0798	1001.43 ± 0.33	1471.5 ± 2.5
288.15 K, m1 = 0.0926	1001.79 ± 0.33	1472.4 ± 2.5
288.15 K, m1 = 0.1009	1002.03 ± 0.33	1473 ± 2.5
298.15 K, m1 = 0.0101	997.34 ± 0.32	1497.4 ± 2.5
298.15 K, m1 = 0.0162	997.52 ± 0.32	1497.8 ± 2.5
298.15 K, m1 = 0.0196	997.61 ± 0.32	1497.9 ± 2.5
298.15 K, m1 = 0.0267	997.81 ± 0.33	1498.4 ± 2.5
298.15 K, m1 = 0.0299	997.9 ± 0.33	1498.6 ± 2.5
298.15 K, m1 = 0.0349	998.05 ± 0.33	1498.9 ± 2.5
298.15 K, m1 = 0.0401	998.17 ± 0.33	1499.2 ± 2.5
298.15 K, m1 = 0.0515	998.5 ± 0.33	1499.9 ± 2.5
298.15 K, m1 = 0.0586	998.7 ± 0.33	1500.4 ± 2.5
298.15 K, m1 = 0.0705	999.01 ± 0.33	1501.2 ± 2.5
298.15 K, m1 = 0.0807	999.29 ± 0.33	1501.8 ± 2.5
298.15 K, m1 = 0.0926	999.61 ± 0.33	1502.5 ± 2.5
298.15 K, m1 = 0.1009	999.84 ± 0.33	1503 ± 2.5
